Measurements as given in ChEMBL document CHEMBL1121600, “Inhibitors of phenylethanolamine N-methyltransferase and epinephrine biosynthesis. 2. 1,2,3,4-Tetrahydroisoquinoline-7-sulfonanilides” (J Med Chem, 1980).

Legend:
Format in all cases: organism-based
[1] = target: T1, Phenylethanolamine N-methyltransferase (Mus musculus) (UniProt P40935); assay: Phenylethanolamine N-Methyltransferase inhibition assay in a 7-day mouse study was determined by epinephrine level at 25 mg/kg dose; set-up: dose 25 mg/kg
T1 sequence (whole entry): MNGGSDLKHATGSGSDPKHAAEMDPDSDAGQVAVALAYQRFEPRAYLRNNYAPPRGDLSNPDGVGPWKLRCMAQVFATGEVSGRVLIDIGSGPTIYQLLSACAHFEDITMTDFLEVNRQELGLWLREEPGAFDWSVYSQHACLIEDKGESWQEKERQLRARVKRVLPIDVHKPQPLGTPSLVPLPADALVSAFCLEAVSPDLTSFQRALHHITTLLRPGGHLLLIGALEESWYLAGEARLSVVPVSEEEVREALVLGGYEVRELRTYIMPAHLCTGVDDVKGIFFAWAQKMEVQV

[2] = target: T1, Phenylethanolamine N-methyltransferase (Mus musculus); assay: Phenylethanolamine N-Methyltransferase inhibition assay in a 7-day mouse study was determined by epinephrine level at 100 mg/kg dose; set-up: dose 100 mg/kg
[3] = target: T1, Phenylethanolamine N-methyltransferase (Mus musculus); assay: Phenylethanolamine N-Methyltransferase inhibition assay in a 7-day mouse study was determined by epinephrine level at 50 mg/kg dose; set-up: dose 50 mg/kg
[4] = target: T2, Phenylethanolamine N-methyltransferase (Homo sapiens) (UniProt P11086); assay: Epinephrine to norepinephrine ratio at 100 mg/kg dose; set-up: dose 100 mg/kg; details: Oryctolagus cuniculus
T2 sequence (whole entry): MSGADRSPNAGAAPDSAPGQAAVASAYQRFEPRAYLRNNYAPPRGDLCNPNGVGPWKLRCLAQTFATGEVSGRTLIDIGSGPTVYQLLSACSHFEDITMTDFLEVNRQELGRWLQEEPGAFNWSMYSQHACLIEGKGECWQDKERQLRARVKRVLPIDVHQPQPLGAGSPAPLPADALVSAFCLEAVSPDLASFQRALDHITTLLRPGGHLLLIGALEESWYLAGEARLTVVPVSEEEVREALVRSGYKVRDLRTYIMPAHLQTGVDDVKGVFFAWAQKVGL

SMILES	Epinephrine level [1]	Epinephrine level [2]	Epinephrine level [3]	Ratio [4]
O=S(=O)(Nc1ccc(Cl)cc1)c1ccc2c(c1)CNCC2	8			
NS(=O)(=O)c1ccc2c(c1)CNCC2	6.7	5.8	5.9	
O=S(=O)(Nc1ccc(Br)cc1)c1ccc2c(c1)CNCC2		7		2.1
